Assay results from patent US6337317B1, “Antimicrobial peptides and methods of use thereof” (priority 2000, dated 2002).
pIC50: −log10 of the molar value. Where a SMILES comes first, the peptide text is derived from it.

Assays:
[1] = Dansyl polymyxin B displacement assay (binding affinity for LPS); design: species or system Escherichia coli; details: for Imax: maximal displacement, 100% = that observed with polymyxin B; for pIC50: peptide concentration reducing bound dansyl polymyxin B (10 μM) by 50% of maximal displacement, read-out: I50
Protocol: To determine whether invention peptides are able to interact with the LPS of Gram-negative bacterial outer membrane, the binding affinity of peptide for LPS was determined using a dansyl polymyxin B displacement assay (Moore et al. (1986) Antimicrobial Agents Chemother. 29:496-500). The assay uses dansyl polymyxin, a cationic probe that is highly fluorescent only when bound and LPS isolated from E. coli. UB1005. […] Maximal displacement of LPS was expressed as a percentage where 100% displacement of dansyl polymyxin B was taken as that observed with polymyxin B.

Human Red Blood Cells = assay: Hemolytic assay; assay type: cell-based; details: red blood cells
Protocol: The toxicity of invention peptides can be assessed using a hemolytic assay in which the ability of the peptides to lyse human red blood cells is assessed (Zhang et al. (1999) Biochemistry 38:8102-8111; and Examples section).
Hemolytic activity of invention peptides was tested against human red blood cells. Freshly collected human blood treated with heparin was centrifuged to remove the buffy coat, and the erythrocytes thereby obtained were washed three times in saline (0.85% NaCl). Serial dilutions of the peptides in saline were prepared in round-bottomed microtiter plates using total volumes of 100 μl. Red blood cells were diluted with saline to 1/25 of a packed cell volume, and 50 μl of cells were added to each well. Plates, while rocking, were incubated at 37° C., and the concentration of the peptide required for lysis after 4 h was taken as the minimal hemolytic concentration.

[2] = test system: E. coli 0111:B4 LPS induced production of TNF-α in RAW macrophages; assay: Reduction of LPS-induced TNF-α in RAW 264.7 macrophages (ELISA); assay type: cell-based, murine; details: for Inhibition of TNF-α (%): peptide 20 μg/ml, LPS 100 ng/ml, RAW 264.7, 6 hours
Protocol: (§1) The ability of invention peptides to reduce LPS-induced tumor necrosis factor (TNF) production was tested in an in vitro assay. The murine macrophage cell line RAW 264.7 was obtained from American Type Culture Collection (Manassas, Va.) and grown in DMEM medium supplemented with 10% fetal calf serum. The cells were plated at a density of 10^6 cells/well in 24 well plates, incubated overnight, then washed with fresh medium. E. coli 0111 :B4 (100 ng/ml) was added at time 0 to RAW macrophages. Invention peptides […]/m were added at time 0, 30 and 60 minutes and the cells were stimulated for 6 hours. Levels of TNF and interleukin-6 (IL-6) were measured after 6 hours.

[3] = test system: E. coli 0111:B4 LPS induced production of IL-6 in RAW macrophages; assay: Reduction of LPS-induced IL-6 in RAW 264.7 macrophages (ELISA); assay type: cell-based, murine; details: for Inhibition of IL-6 (%): peptide 20 μg/ml, LPS 100 ng/ml, RAW 264.7, 6 hours
Protocol: as §1

P. aeruginosa M2 = assay: P. aeruginosa infection in neutropenic mouse model; assay type: in vivo; details: neutropenic CD-1 mice; for Mean Time to Death: 200 μg peptide intraperitoneally 30 min after infection; for Survival (%), P. aeruginosa infection: 200 μg peptide intraperitoneally, groups of 5 mice, assessed 24 to 72 hours
Protocol: Invention peptides were assayed for their ability to protect against P. aeruginosa infection in a neutropenic mouse mode. Female CD-1 mice, made neutropenic by three injections of cyclophosphamide (see Gough et al., (1996) Infect. Immun. 64:4922-4927) were injected intraperitoneally with a 100% lethal dose of P. aeruginosa M2 (approximately 200 organisms). Thirty minutes later, mice were injected intraperitoneally with invention peptides (200 μg/100 μl) Survival was assessed 24 to 72 hours later.

[4] = LPS-induced endotoxemia in galactosamine-sensitized mice; assay type: in vivo; details: 200 μg peptide intraperitoneally, groups of 10 mice, up to 24 h
Protocol: Bacterial endotoxin (LPS) is highly toxic and can cause high mortality in both humans and animals when released during Gram-negative bacterial infection. Galactosamine-treated mice exposed to moderate does of endotoxin typically die from endotoxic shock within 17 hours following exposure. Invention peptides can be tested for their ability to protect mice against endotoxin-induced death (see Examples section). The anti-endotoxic activity of invention peptides also can be tested in an in vitro assay using a macrophage cell line (Gough et al. (1996) Infect. Immun. 64:4922-4927; and Examples section).
The ability of invention peptides to protect against LPS-induced endotoxemia was assessed in vivo. Mice (8-10 weeks old) were injected intraperitoneally with […] D-galactosamine (Dgal) to sensitize them to LPS according to the method of Galanos (Galanos et al. (1979) Proc. Natl. Acad. Sci., USA, 76:5939-5943). Endotoxic shock was induces by intraperitoneal injections of 3 μg/mL E. coli 111 :B4 LPS in phosphate-buffered saline (PBS). Invention peptides (200 μg/100 μl sterile water) were injected intraperitoneally at a separate site within 10 min of LPS injection, and survival was monitored up to 24 h following injection.

[5] = test system: intact cells of E. coli UB1005; assay: NPN uptake assay, outer membrane permeabilization; assay type: cell-based, Escherichia coli; details: peptide concentration leading to 50% of maximal increase in NPN uptake
Protocol: The outer membrane permeabilization activity of invention peptides was determined by the 1-N-phenylnapthylamine (NPN) uptake assay of Loh et al. ((1984) Antimicor. Agents Chemother. 26:546-551), using intact cells of E. coli UB1005.
(§2) The cytoplasmic membrane depolarization activity of the peptides was determined (Wu and Hancock (1999) J. Biol. Chem. 274:29-35) using the membrane potential sensitive dye 3,3-dipropylthiacarbocyanine diSC35 (28) and E. coli DC2. Bacterial cells in mid-log phase were centrifuged, washed in 5 mM HEPES, pH 7.8, and resuspended in the same buffer to an OD600 of 0.05. A stock solution of diSC35 was added to a final concentration of 0.4 μM and quenching was allowed to occur at room temperature for 20-30 min. Then KCl was added to the cell suspension to a final concentration of 100 mM to equilibrate the cytoplasmic and external K^+ concentrations. A 2-mL cell suspension was placed in a 1 cm cuvette and the desired concentration of tested peptide was added. Changes in fluorescence due to the disruption of the membrane potential in the cytoplasmic membrane were continuously recorded using a Perkin-Elmer model 650-10S spectrofluorimeter at an excitation wavelength of 622 nm and an emission wavelength of 670 nm. The concentration of peptide leading to a 50% of maximal increase in NPN uptake was recorded as the P50.
Therefore, an increase in fluorescence in the presence of a peptide indicates the ability of peptide to permeabilize the bacterial outer membrane.

E. coli DC2 = assay: Cytoplasmic membrane depolarization, diSC35 assay; assay type: cell-based, Escherichia coli; details: 0.25 μg/ml (1×MIC)
Protocol: The arrowhead indicates the time at which 0.25 μg/ml peptide was added. PV5: SEQ ID NO:11; PV7: SEQ ID NO:4; and PV8: SEQ ID NO:3.
as §2

Compound	Imax [1] [%]	pIC50 [1]	hemolytic activity (Human Red Blood Cells)	inhibition of TNF-α production ([2]; 20 μg/ml)	Inhibition of TNF-α (%) [2] [%]	inhibition of IL-6 production ([3]; 20 μg/ml)	Inhibition of IL-6 (%) [3] [%]	Mean Time to Death (P. aeruginosa M2) [h]	Survival (%), P. aeruginosa infection (P. aeruginosa M2) [%]	Survival (%), LPS-Endotoxemia [4] [%]	P50 [5] [µg/mL]	diSC35 dye release from cells (E. coli DC2)
Polymyxin B [reference compound]	100	5.25										
CC(C)[C@@H]1NC(=O)[C@H](CCCNC(=N)N)NC(=O)[C@H](Cc2ccccc2)NC(=O)[C@@H](NC(=O)[C@H](Cc2c[nH]c3ccccc23)NC(=O)[C@H](CCCNC(=N)N)NC(=O)[C@@H](N)CCCNC(=N)N)CSSC[C@@H](C(=O)N[C@@H](CCCNC(=N)N)C(N)=O)NC(=O)[C@H](CCCCN)NC(=O)[C@H](CCCNC(=N)N)NC(=O)[C@H](Cc2ccc(O)cc2)NC(=O)[C@@H]2CSSC[C@H](NC1=O)C(=O)N[C@@H](Cc1ccc(O)cc1)C(=O)N[C@@H](CCCNC(=N)N)C(=O)NCC(=O)N[C@@H](CCCNC(=N)N)C(=O)N[C@@H](Cc1ccccc1)C(=O)N2 [SEQ ID NO:11, RRWCFRVCYRGRFCYRKCR] (HELM PEPTIDE1{R.R.W.C.F.R.V.C.Y.R.G.R.F.C.Y.R.K.C.R.[am]}$PEPTIDE1,PEPTIDE1,4:R3-18:R3|PEPTIDE1,PEPTIDE1,8:R3-14:R3$$$V2.0)	87	5.52	show hemolytic activity	best inhibitor	90 ± 6	best inhibitor	91 ± 4	57	40	50	3.7	unable to cause a significant level of dye release
CC(C)[C@@H]1NC(=O)[C@H](CCCNC(=N)N)NC(=O)[C@H](Cc2ccccc2)NC(=O)[C@@H](NC(=O)[C@H](Cc2c[nH]c3ccccc23)NC(=O)[C@H](CCCNC(=N)N)NC(=O)[C@@H](N)CCCNC(=N)N)CSSC[C@@H](C(=O)N[C@@H](CCCNC(=N)N)C(N)=O)NC(=O)[C@H](CCCCN)NC(=O)[C@H](Cc2ccc(O)cc2)NC(=O)[C@H](CCCNC(=N)N)NC(=O)[C@@H]2CSSC[C@H](NC1=O)C(=O)N[C@@H](Cc1ccc(O)cc1)C(=O)N[C@@H](CCCCN)C(=O)NCC(=O)N[C@@H](Cc1ccccc1)C(=O)N2 [SEQ ID NO:4, RRWCFRVCYKGFCRYKCR] (HELM PEPTIDE1{R.R.W.C.F.R.V.C.Y.K.G.F.C.R.Y.K.C.R.[am]}$PEPTIDE1,PEPTIDE1,4:R3-17:R3|PEPTIDE1,PEPTIDE1,8:R3-13:R3$$$V2.0)	76	5.24	show hemolytic activity		61 ± 5		77 ± 6	61	40	40	4.1	
CC(C)[C@@H]1NC(=O)[C@H](CCCNC(=N)N)NC(=O)[C@H](Cc2ccccc2)NC(=O)[C@@H](NC(=O)[C@H](Cc2c[nH]c3ccccc23)NC(=O)[C@H](CCCNC(=N)N)NC(=O)[C@@H](N)Cc2ccccc2)CSSC[C@@H](C(=O)N[C@@H](CCCNC(=N)N)C(N)=O)NC(=O)[C@H](CCCCN)NC(=O)[C@H](Cc2ccc(O)cc2)NC(=O)[C@H](CCCNC(=N)N)NC(=O)[C@@H]2CSSC[C@H](NC1=O)C(=O)N[C@@H](Cc1ccc(O)cc1)C(=O)N[C@@H](CCCCN)C(=O)NCC(=O)N[C@@H](CCCNC(=N)N)C(=O)N2 [SEQ ID NO:3, FRWCFRVCYKGRCRYKCR] (HELM PEPTIDE1{F.R.W.C.F.R.V.C.Y.K.G.R.C.R.Y.K.C.R.[am]}$PEPTIDE1,PEPTIDE1,4:R3-17:R3|PEPTIDE1,PEPTIDE1,8:R3-13:R3$$$V2.0)	93	5.31	show hemolytic activity		55 ± 5		70 ± 6	>72	60	20	3.9	
